In general, IC50 refers to the concentration that inhibits the measured activity by half.

The text below walks through data of US12448394B2, “Heterocyclic pyrazole derivatives as type III receptor tyrosine kinase inhibitors” (DEVELOPMENT CENTER FOR BIOTECHNOLOGY, priority 2019, dated 2025).

The test system of assay [1] is experimental autoimmune encephalomyelitis (EAE). The settings on record: mouse model for multiple sclerosis; cited from earlier work.
The target of a further assay is T1, FLT3 kinase (Homo sapiens, UniProt P36888).
T1 construct: purchased SignalChem
T1 sequence (P36888 27-993): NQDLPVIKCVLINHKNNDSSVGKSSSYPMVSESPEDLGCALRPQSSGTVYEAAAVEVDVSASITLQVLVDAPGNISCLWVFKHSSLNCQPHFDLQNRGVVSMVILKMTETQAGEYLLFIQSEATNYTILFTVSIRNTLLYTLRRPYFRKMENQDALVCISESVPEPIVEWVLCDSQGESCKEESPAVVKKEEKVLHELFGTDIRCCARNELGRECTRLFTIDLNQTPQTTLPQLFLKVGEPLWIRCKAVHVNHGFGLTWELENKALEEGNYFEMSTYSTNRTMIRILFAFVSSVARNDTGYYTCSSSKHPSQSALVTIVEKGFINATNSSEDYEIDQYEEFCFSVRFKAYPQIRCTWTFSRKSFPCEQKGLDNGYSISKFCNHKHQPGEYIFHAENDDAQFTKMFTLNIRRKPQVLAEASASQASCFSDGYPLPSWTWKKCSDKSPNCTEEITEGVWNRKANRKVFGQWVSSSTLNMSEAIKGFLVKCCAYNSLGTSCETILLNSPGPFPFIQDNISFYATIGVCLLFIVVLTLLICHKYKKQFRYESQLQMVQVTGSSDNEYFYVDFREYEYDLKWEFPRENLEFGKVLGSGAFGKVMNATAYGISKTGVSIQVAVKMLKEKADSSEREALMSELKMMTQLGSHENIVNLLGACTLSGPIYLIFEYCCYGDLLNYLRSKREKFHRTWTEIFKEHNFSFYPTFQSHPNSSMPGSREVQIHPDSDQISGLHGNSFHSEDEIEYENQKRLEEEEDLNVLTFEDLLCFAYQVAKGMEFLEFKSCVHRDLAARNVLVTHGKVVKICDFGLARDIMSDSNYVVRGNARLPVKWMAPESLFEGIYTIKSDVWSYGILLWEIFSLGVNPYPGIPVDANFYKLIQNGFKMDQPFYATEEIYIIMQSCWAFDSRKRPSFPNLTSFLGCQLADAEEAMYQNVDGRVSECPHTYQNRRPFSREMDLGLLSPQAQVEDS
The experiment in a line: FLT3 kinase assay (AlphaScreen). It is filed as biochemical. The settings on record: read-out: Ranking of IC50 values, FLT3. As for the experimental part: (§1) Inhibition of FLT3 kinase activity by a test compound disclosed herein was estimated by AlphaScreen (PerkinElmer, Akron, Ohio, USA). Standard assay conditions were 1.5 ng of recombinant FLT3 kinase (SignalChem, Richmond, BC, Canada) with 6 ng Biotin-conjugated Poly-(Glu 4: Tyr 1) (Cisbio, Bedford, MA, USA) in the assay buffer (10 μM ATP, 10 mM MOPs, pH7.0, 0.21 mM EDTA, 0.5% glycerol, 1 mg/mL BSA, 0.01% 2-mercaptoethanol, 0.001% Brij35, 10 mM MgCl2) in a final volume of 25 μL. Reactions were incubated at 30° C. for 30 min and stopped by adding 5 μL of 50 mM EDTA. Analysis of resulting product using an AlphaScreen kit and counted with Enspire Alpha (PerkinElmer, Waltham, MA, USA). […] The IC50 values of inhibitors were determined after carrying out assays with each compound at serially diluted concentrations in duplication. The results were analyzed using linear regression software (GraphPad Prism 5; GraphPad Software Inc.)

In another assay the target is T2, FLT3-D835Y mutant kinase (Homo sapiens, UniProt P36888, D835Y).
T2 construct: purchased SignalChem
T2 sequence (P36888 27-993 D835Y): T1 sequence (P36888 27-993) with D809Y
The experiment in a line: FLT3-D835Y mutant kinase assay (AlphaScreen). It is filed as biochemical. The settings on record: read-out: Ranking of IC50 values, FLT3-D835Y. The method, then:
as §1, with “FLT3-D835Y mutant” for “FLT3”, “(PerkinElmer).” for “(PerkinElmer, Akron, Ohio, USA).”, “1” for “1.5”, “(SignalChem)” for “(SignalChem, Richmond, BC, Canada)”, “(Cisbio)” for “(Cisbio, Bedford, MA, USA)”, “(PerkinElmer).” for “(PerkinElmer, Waltham, MA, USA).”

A further assay concerns the target T3, PDGFRα kinase (Homo sapiens, UniProt P16234).
T3 construct: purchased SignalChem
The assay can be described thus: PDGFRα kinase assay (AlphaScreen). It is filed as biochemical. As to conditions: read-out: Ranking of IC50 values, PDGFRα. The method, then: Inhibition of PDGFRα kinase activity by a test compound disclosed herein was estimated by AlphaScreen (PerkinElmer). Standard assay conditions were 1.5 ng of recombinant PDGFRα kinase (SignalChem) with 6 ng Biotin-conjugated Poly-(Glu 4: Tyr 1) (Cisbio) in the assay buffer (10 μM ATP, 10 mM MOPs, pH 7.0, 0.21 mM EDTA, 0.5% glycerol, 1 mg/mL BSA, 0.01% 2-mercaptoethanol, 0.001% Brij35, 10 mM MgCl2) in a final volume of 25 μL. Reactions were incubated at 30° C. for 30 min and stopped by adding […] of 50 mM EDTA. Analysis of resulting product using an AlphaScreen kit and counted with Enspire Alpha (PerkinElmer). […] The IC50 values of inhibitors were determined after carrying out assays with each compound at serially diluted concentrations in duplication. The results were analyzed using linear regression software (GraphPad Prism 5; GraphPad Software Inc.)
In general terms: Bead proximity is the source of the signal in Alpha formats.

A further assay addresses T4, MET kinase (Homo sapiens, UniProt P08581).
T4 construct: purchased SignalChem
The assay can be described thus: MET kinase assay (AlphaScreen, counter screen). In kind it is biochemical. As to conditions: read-out: Ranking of IC50 values, MET. The method, then:
Because MET kinase belonged to Class VIII RTK family have one transmembrane a chain linked with one extracellular β chain which is different form Class III RTK family with 5 Immunoglobin-like extracellular domains. Standard assay conditions were 1 ng of recombinant MET kinase (SignalChem) with 3 ng Biotin-conjugated Poly-(Glu 4: Tyr 1) (Cisbio) in the assay buffer ([…], 10 mM MOPs, pH 7.0, 0.21 mM EDTA, 0.5% glycerol, 1 mg/mL BSA, 0.01% 2-mercaptoethanol, 0.001% Brij35, 10 mM MgCl2) in a final volume of 25 μL. Reactions were incubated at 30° C. for 45 min and stopped by adding 5 μL of 50 mM EDTA. Analysis of resulting product using an AlphaScreen kit and counted with Enspire Alpha (PerkinElmer). […] The IC50 values of inhibitors were determined after carrying out assays with each compound at serially diluted concentrations in duplication. The results were analyzed using linear regression software (GraphPad Prism 5; GraphPad Software Inc.)

SMILES strings stand for the structures. Substitutions are numbered along the chain they refer to.

T4 sequence (P08581 25-1390): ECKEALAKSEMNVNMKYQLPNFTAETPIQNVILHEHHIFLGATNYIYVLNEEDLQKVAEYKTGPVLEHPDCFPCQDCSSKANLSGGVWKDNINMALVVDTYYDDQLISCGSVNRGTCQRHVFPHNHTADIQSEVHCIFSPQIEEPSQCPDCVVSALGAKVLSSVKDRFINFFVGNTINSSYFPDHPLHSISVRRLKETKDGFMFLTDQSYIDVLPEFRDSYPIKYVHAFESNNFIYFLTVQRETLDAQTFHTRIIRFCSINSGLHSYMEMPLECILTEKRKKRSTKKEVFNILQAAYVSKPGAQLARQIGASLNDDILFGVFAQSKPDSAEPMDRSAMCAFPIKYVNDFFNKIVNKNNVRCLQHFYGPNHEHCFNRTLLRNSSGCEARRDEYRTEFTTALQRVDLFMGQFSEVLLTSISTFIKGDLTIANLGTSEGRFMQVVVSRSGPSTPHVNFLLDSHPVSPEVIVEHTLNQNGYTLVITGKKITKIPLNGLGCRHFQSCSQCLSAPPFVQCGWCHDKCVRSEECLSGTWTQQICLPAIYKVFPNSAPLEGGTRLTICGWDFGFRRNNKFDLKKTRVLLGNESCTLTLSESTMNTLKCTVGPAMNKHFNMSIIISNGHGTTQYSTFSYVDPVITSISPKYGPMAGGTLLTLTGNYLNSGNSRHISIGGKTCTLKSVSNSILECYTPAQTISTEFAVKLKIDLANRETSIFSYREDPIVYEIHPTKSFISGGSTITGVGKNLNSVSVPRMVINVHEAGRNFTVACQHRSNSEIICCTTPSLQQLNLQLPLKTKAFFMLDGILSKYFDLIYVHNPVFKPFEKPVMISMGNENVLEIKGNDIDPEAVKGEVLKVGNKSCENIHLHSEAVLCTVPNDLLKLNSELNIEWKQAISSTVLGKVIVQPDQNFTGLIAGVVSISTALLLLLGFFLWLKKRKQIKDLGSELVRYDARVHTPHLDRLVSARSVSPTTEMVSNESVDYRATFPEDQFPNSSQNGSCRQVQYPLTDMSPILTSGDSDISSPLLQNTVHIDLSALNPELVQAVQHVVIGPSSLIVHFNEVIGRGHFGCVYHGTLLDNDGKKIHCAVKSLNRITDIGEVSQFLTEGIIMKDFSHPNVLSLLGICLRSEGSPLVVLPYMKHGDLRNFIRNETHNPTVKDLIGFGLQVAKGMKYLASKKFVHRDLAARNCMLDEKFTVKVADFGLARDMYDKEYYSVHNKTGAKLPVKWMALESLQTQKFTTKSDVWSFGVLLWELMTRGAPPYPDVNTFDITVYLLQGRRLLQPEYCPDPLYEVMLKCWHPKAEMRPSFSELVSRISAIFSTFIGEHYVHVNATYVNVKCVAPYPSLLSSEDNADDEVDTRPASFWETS
T3 sequence (P16234 24-1089): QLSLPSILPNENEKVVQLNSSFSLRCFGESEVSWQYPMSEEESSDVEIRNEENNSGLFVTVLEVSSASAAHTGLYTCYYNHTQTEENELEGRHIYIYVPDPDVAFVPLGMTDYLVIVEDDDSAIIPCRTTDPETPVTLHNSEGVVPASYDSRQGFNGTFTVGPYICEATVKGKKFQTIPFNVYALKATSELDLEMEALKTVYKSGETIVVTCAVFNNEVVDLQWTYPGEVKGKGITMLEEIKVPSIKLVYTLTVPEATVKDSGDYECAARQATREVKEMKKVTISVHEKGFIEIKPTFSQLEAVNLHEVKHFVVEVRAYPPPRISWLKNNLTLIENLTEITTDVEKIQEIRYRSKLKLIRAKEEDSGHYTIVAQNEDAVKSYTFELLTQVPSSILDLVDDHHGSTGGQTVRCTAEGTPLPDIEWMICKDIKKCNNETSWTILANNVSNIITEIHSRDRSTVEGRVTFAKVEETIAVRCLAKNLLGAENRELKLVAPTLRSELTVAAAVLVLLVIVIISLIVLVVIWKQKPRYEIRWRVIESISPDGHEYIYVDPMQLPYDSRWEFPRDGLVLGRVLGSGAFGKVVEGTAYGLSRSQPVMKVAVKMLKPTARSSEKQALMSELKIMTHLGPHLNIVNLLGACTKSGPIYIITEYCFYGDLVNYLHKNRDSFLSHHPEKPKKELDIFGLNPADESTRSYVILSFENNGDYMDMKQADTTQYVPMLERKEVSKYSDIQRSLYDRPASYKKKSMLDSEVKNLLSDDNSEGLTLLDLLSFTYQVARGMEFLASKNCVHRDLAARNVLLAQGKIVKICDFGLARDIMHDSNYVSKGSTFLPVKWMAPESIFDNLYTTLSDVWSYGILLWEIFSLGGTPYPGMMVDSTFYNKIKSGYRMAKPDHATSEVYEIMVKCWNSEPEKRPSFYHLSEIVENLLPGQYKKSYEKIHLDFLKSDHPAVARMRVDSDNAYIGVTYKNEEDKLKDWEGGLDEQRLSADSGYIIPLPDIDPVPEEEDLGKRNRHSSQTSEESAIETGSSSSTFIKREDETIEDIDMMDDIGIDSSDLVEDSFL

As to `C[C@]12O[C@H](C[C@]1(O)CO)n1c3ccccc3c3c4c(c5c6ccccc6n2c5c31)CNC4=O` [CEP-701], the “reducing myelin loss in EAE” value in assay [1] was “effective in reducing myelin loss”.

`Brc1n[nH]c2cc(-c3n[nH]c4c3Cc3sc(-c5ccc(CN6CCOCC6)cc5)cc3-4)ccc12` [Compound 68, 4-(4-(3-(3-bromo-1H-indazol-6-yl)-1,4-dihydro-thieno[2′,3′:4,5]cyclopenta [1,2-c]pyrazol-6-yl)benzyl)morpholine]: the IC50 at FLT3 kinase is 1 to 10 nM; at FLT3-D835Y mutant kinase, 1 to 10 nM; on PDGFRα kinase, 1 to 10 nM; on MET kinase, greater than 1000 nM.
